Source: patent US9511073B2, “Aromatic amides and uses thereof” (TAXIS Pharmaceuticals, Inc., priority 2011, dated 2016)
Values after ≈ are worked out from the molar mass of the structure shown.

System: Staphylococcus aureus (Isolate ID ATCC 29213)
Test: Bacterial assay: MIC by broth microdilution or agar dilution (CLSI), S. aureus ATCC 29213
Type: cell-based
Details: Staphylococcus aureus, ATCC29213, read-out: S. aureus MIC (μg/mL) Activity Range, S. aureus (ATCC29213)
Outline: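 Activity is binned (A ≤0.25 μg/mL; B >0.25–1.0; C >1.0–16; D >16 μg/mL) from MICs determined per CLSI by broth microdilution or agar dilution, on S. aureus ATCC 29213 plus an FtsZ-G196A mutant strain.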

Row | Compound | MIC [µg/mL]
1 | CCCc1oc(C(CC)Oc2ccc(F)c(C(N)=O)c2F)nc1-c1ccc(Cl)cc1 (stereo not shown) [Compound 26, 3-(1-(4-(4-chlorophenyl)-5-propyloxazol-2-yl)propoxy)-2,6-difluorobenzamide] | 0.25 to 1 (≈ 0.575 to 2.3 µM)
2 | NC(=O)c1c(F)ccc(OC(CO)c2nc(-c3ccc(Cl)cc3)c(Cl)o2)c1F (stereo not shown) [Compound 47, 3-(1-(5-chloro-4-(4-chlorophenyl)oxazol-2-yl)-2-hydroxyethoxy)-2,6-difluorobenzamide] | 0.25 to 1 (≈ 0.582 to 2.33 µM)
3 | C[C@@H](O)[C@@H](Oc1ccc(F)c(C(N)=O)c1F)c1nc(-c2ccc(OC(F)F)cc2)c(Br)o1 [Compound 297, 3-((1R,2R)-1-(5-bromo-4-(4-(difluoromethoxy)phenyl)oxazol-2-yl)-2-hydroxypropoxy)-2,6-difluorobenzamide] | < 0.25
4 | CC(=O)OCC(Oc1ccc(F)c(C(N)=O)c1F)c1nc(-c2ccc(Cl)cc2)c(Br)o1 (stereo not shown) [Compound 36] | 0.25 to 1 (≈ 0.485 to 1.94 µM)
5 | CC(Oc1ccc(F)c(C(N)=O)c1F)c1nc(-c2ccc(Cl)cc2)co1 (stereo not shown) [Compound 4] | 1 to 16 (≈ 2.64 to 42.2 µM)
6 | C=CCc1oc(C(CO)Oc2ccc(F)c(C(N)=O)c2F)nc1-c1ccc(C(F)(F)F)cc1 (stereo not shown) [Compound 66, 3-(1-(5-allyl-4-(4-(trifluoromethyl)phenyl)oxazol-2-yl)-2-hydroxyethoxy)-2,6-difluorobenzamide] | 1 to 16 (≈ 2.14 to 34.2 µM)
7 | CN(CCNC(=O)OCC(Oc1ccc(F)c(C(N)=O)c1F)c1nc(-c2ccc(C(F)(F)F)cc2)c(Br)o1)C(=O)OC(C)(C)C (stereo not shown) [Compound 153, tert-butyl (2-(((2-(5-bromo-4-(4-(trifluoromethyl)phenyl)oxazol-2-yl)-2-(3-carbamoyl-2,4-difluorophenoxy)ethoxy)carbonyl)amino)ethyl)(methyl)carbamate] | 0.25 to 1 (≈ 0.353 to 1.41 µM)
8 | COCCOCC(=O)NCC(Oc1ccc(F)c(C(N)=O)c1F)c1nc(-c2ccc(C(F)(F)F)cc2)c(Br)o1 (stereo not shown) [Compound 301, 3-(1-(5-bromo-4-(4-(trifluoromethyl)phenyl)oxazol-2-yl)-2-(2-(2-methoxyethoxy)acetamido)ethoxy)-2,6-difluorobenzamide] | 1 to 16 (≈ 1.61 to 25.7 µM)
9 | CCOc1cnc2sc(C(C)Oc3ccc(F)c(C(N)=O)c3F)nc2c1 (stereo not shown) [Compound 29, 3-(1-(6-ethoxythiazolo[5,4-b]pyridin-2-yl)ethoxy)-2,6-difluorobenzamide] | 1 to 16 (≈ 2.64 to 42.2 µM)
10 | NC(=O)c1c(F)ccc(OC(CC(=O)O)c2nc(-c3ccc(C(F)(F)F)cc3)c(Br)o2)c1F (stereo not shown) [Compound 77, 3-(5-bromo-4-(4-(trifluoromethyl)phenyl)oxazol-2-yl)-3-(3-carbamoyl-2,4-difluorophenoxy)propanoic acid] | > 16
11 | COC(=O)c1ccc(-c2nc(C(CO)Oc3ccc(F)c(C(N)=O)c3F)oc2Br)cc1 (stereo not shown) [Compound 246, methyl 4-(5-bromo-2-(1-(3-carbamoyl-2,4-difluorophenoxy)-2-hydroxyethyl)oxazol-4-yl)benzoate] | 1 to 16 (≈ 2.01 to 32.2 µM)
12 | COc1ncccc1CNC(=O)OCC(Oc1ccc(F)c(C(N)=O)c1F)c1nc(-c2ccc(C(F)(F)F)cc2)c(Br)o1 (stereo not shown) [Compound 196, 2-(5-bromo-4-(4-(trifluoromethyl)phenyl)oxazol-2-yl)-2-(3-carbamoyl-2,4-difluorophenoxy)ethyl ((2-methoxypyridin-3-yl)methyl)carbamate] | < 0.25
13 | COc1ncc(-c2nc(C(C)Oc3ccc(F)c(C(N)=O)c3F)sc2Cl)s1 (stereo not shown) [Compound 35] | < 0.25
14 | NC(=O)c1c(F)ccc(OC(CNC(=O)Cc2cccnc2)c2nc(-c3ccc(C(F)(F)F)cc3)c(Br)o2)c1F (stereo not shown) [Compound 298, 3-(1-(5-bromo-4-(4-(trifluoromethyl)phenyl)oxazol-2-yl)-2-(2-(pyridin-3-yl)acetamido)ethoxy)-2,6-difluorobenzamide] | 1 to 16 (≈ 1.6 to 25.6 µM)
15 | CC(=O)NCC(Oc1ccc(F)c(C(N)=O)c1F)c1nc(-c2ccc(C(F)(F)F)cc2)c(Br)o1 (stereo not shown) [Compound 283, 3-(2-acetamido-1-(5-bromo-4-(4-(trifluoromethyl)phenyl)oxazol-2-yl)ethoxy)-2,6-difluorobenzamide] | 1 to 16 (≈ 1.82 to 29.2 µM)
16 | COc1ccc(-c2coc([C@H](C)Oc3ccc(F)c(C(N)=O)c3F)n2)cc1 [Compound 268A, (S)-2,6-difluoro-3-(1-(4-(4-methoxyphenyl)oxazol-2-yl)ethoxy)benzamide] | > 16
17 | C=CCc1oc(C(C)Oc2ccc(F)c(C(N)=O)c2F)nc1-c1ccc(Cl)cc1 (stereo not shown) [Compound 7] | 0.25 to 1 (≈ 0.597 to 2.39 µM)
18 | C=CCCC(Oc1ccc(F)c(C(N)=O)c1F)c1nc(-c2ccc(C(F)(F)F)cc2)c(Br)o1 (stereo not shown) [Compound 124, 3-((1-(5-bromo-4-(4-(trifluoromethyl)phenyl)oxazol-2-yl)pent-4-en-1-yl)oxy)-2,6-difluorobenzamide] | 1 to 16 (≈ 1.88 to 30.1 µM)
19 | NC(=O)c1c(F)ccc(OC(CNC(=O)OCc2ccccc2)c2nc(-c3ccc(C(F)(F)F)cc3)c(Br)o2)c1F (stereo not shown) [Compound 280, benzyl (2-(5-bromo-4-(4-(trifluoromethyl)phenyl)oxazol-2-yl)-2-(3-carbamoyl-2,4-difluorophenoxy)ethyl)carbamate] | 0.25 to 1 (≈ 0.39 to 1.56 µM)
20 | CS(=O)(=O)c1ccc(-c2nc(C(CO)Oc3ccc(F)c(C(N)=O)c3F)oc2Br)cc1 (stereo not shown) [Compound 145, 3-(1-(5-bromo-4-(4-(methylsulfonyl)phenyl)oxazol-2-yl)-2-hydroxyethoxy)-2,6-difluorobenzamide] | > 16
21 | NC(=O)c1c(F)ccc(OC(COC(=O)Cn2cccc2)c2nc(-c3ccc(C(F)(F)F)cc3)c(Br)o2)c1F (stereo not shown) [Compound 68, 2-(5-bromo-4-(4-(trifluoromethyl)phenyl)oxazol-2-yl)-2-(3-carbamoyl-2,4-difluorophenoxy)ethyl 2-(1H-pyrrol-1-yl)acetate] | < 0.25
22 | CCCc1oc(C(CO)Oc2ccc(F)c(C(N)=O)c2F)nc1-c1ccc(C(F)(F)F)cc1 (stereo not shown) [Compound 67, 2,6-difluoro-3-(2-hydroxy-1-(5-propyl-4-(4-(trifluoromethyl)phenyl)oxazol-2-yl)ethoxy)benzamide] | 1 to 16 (≈ 2.13 to 34 µM)
23 | COc1ncc(-c2nc([C@@H](CO)Oc3ccc(F)c(C(N)=O)c3F)oc2Br)cn1 [Compound 257B, (R)-3-(1-(5-bromo-4-(2-methoxypyrimidin-5-yl)oxazol-2-yl)-2-hydroxyethoxy)-2,6-difluorobenzamide] | > 16
24 | NCC(Oc1ccc(F)c(C(N)=O)c1F)c1nc(-c2ccc(C(F)(F)F)cc2)c(Br)o1 (stereo not shown) [Compound 290, 3-(2-amino-1-(5-bromo-4-(4-(trifluoromethyl)phenyl)oxazol-2-yl)ethoxy)-2,6-difluorobenzamide] | 1 to 16 (≈ 1.98 to 31.6 µM)
25 | CC(Oc1ccc(F)c(C(N)=O)c1F)c1nc(-c2ccc(C(F)(F)F)nc2)c(Cl)o1 (stereo not shown) [Compound 50] | 1 to 16 (≈ 2.23 to 35.7 µM)
26 | CSc1oc(C(CO)Oc2ccc(F)c(C(N)=O)c2F)nc1-c1ccc(C(F)(F)F)cc1 (stereo not shown) [Compound 271, 2,6-difluoro-3-(2-hydroxy-1-(5-(methylthio)-4-(4-(trifluoromethyl)phenyl)oxazol-2-yl)ethoxy)benzamide] | 0.25 to 1 (≈ 0.527 to 2.11 µM)
27 | CN(C)C(=O)CC(Oc1ccc(F)c(C(N)=O)c1F)c1nc(-c2ccc(C(F)(F)F)cc2)c(Br)o1 (stereo not shown) [Compound 88, 3-(1-(5-bromo-4-(4-(trifluoromethyl)phenyl)oxazol-2-yl)-3-(dimethylamino)-3-oxopropoxy)-2,6-difluorobenzamide] | 1 to 16 (≈ 1.78 to 28.5 µM)
28 | CN1CCN(C(=O)OCC(Oc2ccc(F)c(C(N)=O)c2F)c2nc(-c3ccc(C(F)(F)F)cc3)c(Br)o2)CC1 (stereo not shown) [Compound 178, 2-(5-bromo-4-(4-(trifluoromethyl)phenyl)oxazol-2-yl)-2-(3-carbamoyl-2,4-difluorophenoxy)ethyl 4-methylpiperazine-1-carboxylate] | 0.25 to 1 (≈ 0.395 to 1.58 µM)
